Each structure is given as a SMILES string.

This assay relates to cultured tissue from needle biopsy, Breast DCIS papillary neoplasm. Briefly: dose response study with cumulative cell death on cultured patient biopsy tissue (patient 19055). The assay is classed as cell-based, human. The note with it: in vitro cultured biopsy sample, patient 19055, Breast DCIS papillary neoplasm. Here is the method:
Comparative studies were performed using Sutherlandia leaf extract in water (referred to as ACPJL35), Sutherlandia leaf extract in 50% ethanol and water solution (referred to as ACPJL28), and Sutherlandia leaf extract in 90% ethanol and water solution (referred to as ACPJL07). These extracts were compared to a number of known botanical isolates with anti-cancer activity, as well as a number of known anti-cancer drugs, using a dose response design with cumulative cell death as the dependent variable. These studies were conducted on in vitro samples of cultured tissue, taken as biopsy samples from patients as part of a standard culture and testing process done in order to optimise treatment.
Patient from whom sample was obtained was a person presenting with a diagnosis of Breast DCIS papillary neoplasm. The sample was obtained via needle biopsy, before being cultured.
Consider `COc1cc2c(Oc3ccc4[nH]c(C)cc4c3F)ncnc2cc1OCCCN1CCCC1` [Cediranib], for which the “efficacy assessment from dose response (dose-CR curve), cumulative cell death as dependent variable” value (“efficacy assessment from dose response” for short) is given as “having potential benefit”. In the case of `Nc1nc(Cl)nc2c1ncn2[C@@H]1O[C@H](CO)[C@@H](O)[C@@H]1F` [Clofarabine], the “efficacy assessment from dose response” value is given as “having potential benefit”. For `CC(=O)O[C@@]12CO[C@@H]1C[C@H](O)[C@@]1(C)C(=O)[C@H](O)C3=C(C)[C@@H](OC(=O)[C@H](O)[C@@H](NC(=O)OC(C)(C)C)c4ccccc4)C[C@@](O)([C@@H](OC(=O)c4ccccc4)[C@H]21)C3(C)C` [Docetaxel], the “efficacy assessment from dose response” value is “having potential benefit”. `COc1cc2ncnc(Nc3ccc(F)c(Cl)c3)c2cc1OCCCN1CCOCC1` [Gefitinib]: the “efficacy assessment from dose response” value is given as “having potential benefit”. Consider `O=C1c2c(O)ccc(O)c2C(=O)c2c(NCCNCCO)ccc(NCCNCCO)c21` [Mitoxantrone], for which the “efficacy assessment from dose response” value is recorded as “having potential benefit”. For the compound `COC(=O)c1ccc2c(c1)NC(=O)/C2=C(\Nc1ccc(N(C)C(=O)CN2CCN(C)CC2)cc1)c1ccccc1` [Nintedanib], the “efficacy assessment from dose response” value is “good efficacy and a positive dose response curve”. For `CC(=O)O[C@H]1C(=O)[C@@]2(C)[C@H]([C@H](OC(=O)c3ccccc3)[C@]3(O)C[C@H](OC(=O)[C@H](O)[C@@H](NC(=O)c4ccccc4)c4ccccc4)C(C)=C1C3(C)C)[C@]1(OC(C)=O)CO[C@@H]1C[C@@H]2O` [Paclitaxel], the “efficacy assessment from dose response” value is listed as “having potential benefit”. Then `CC[C@]1(O)C[C@H]2CN(CCc3c([nH]c4ccccc34)[C@@](C(=O)OC)(c3cc4c(cc3OC)N(C=O)[C@H]3[C@@](O)(C(=O)OC)[C@H](OC(C)=O)[C@]5(CC)C=CCN6CC[C@]43[C@@H]65)C2)C1` [Vincristine], with “having potential benefit”; and `CCC1=C[C@@H]2CN(C1)Cc1c([nH]c3ccccc13)[C@@](C(=O)OC)(c1cc3c(cc1OC)N(C)[C@H]1[C@@](O)(C(=O)OC)[C@H](OC(C)=O)[C@]4(CC)C=CCN5CC[C@]31[C@@H]54)C2` [Vinorelbine], with “having potential benefit”; and `O=C(CCCCCCC(=O)Nc1ccccc1)NO` [Vorinostat], with “having potential benefit”.
